Legend:
HUVEC = assay: Neutralization test of vascular endothelial cell lumen formation inhibition using PB-1 (Example 35); format: cell-based, human; settings: Matrigel matrix; 8-hour culture
Protocol: Matrigel matrix was prepared by the same operation as in Example 14.
10 μL of Glycer-AGEs-BSA (10 mg/mL) prepared in Example 1, 10 μL of phosphate-buffered saline (PBS, FUJIFILM Wako Pure Chemical Corp.), and 90 μL of the PB-1 antibody (10 mg/mL) or a control antibody (10 mg/mL) were added to a 1.5 mL tube (Watson) and left standing at room temperature for 10 minutes. Then, a supernatant was recovered by centrifugation at 14000 rpm for 15 minutes using a centrifuge (Thermo Fisher Scientific Inc.).
(3) A lumen formation inhibition test was conducted by the same operation as in Example 14. As shown in the drawing, HUVEC was confirmed to form a lumen in the Matrigel matrix in the control BSA addition group. […] Furthermore, this inhibition of lumen formation was neutralized by the reaction solution of PB-1.

CD31 = assay: Endothelial-to-mesenchymal transition inhibition test, real-time PCR (Example 15); format: cell-based, human; settings: HUVEC; β-actin internal standard; 8 hours
Protocol: (§1) 10 μL of Glycer-AGEs-BSA (10 mg/mL) prepared in Example 1, PBS, and 90 μL of SJ-5 (10 mg/mL) or a control antibody (10 mg/mL) were added to a 1.5 mL tube (Watson). Alternatively, 90 μL of a PBS solution of control BSA (10 mg/mL) was added. These solutions were left standing at room temperature for 10 minutes. Then, a supernatant was recovered by centrifugation at 14000 rpm for 15 minutes using a centrifuge (Thermo Fisher Scientific Inc.).
(§2) HUVEC was cultured in a 10 cm dish using 10 mL of a medium for HUVEC.
(§3) The cultured HUVEC was washed with 10 mL of PBS. Then, 1 mL of trypsin-EDTA was added thereto and left standing at room temperature for 3 minutes. HUVEC thus left standing was confirmed to be detached from the dish, and trypsin-EDTA was neutralized by the addition of 10 mL of a medium for HUVEC. After the neutralization, the whole amount was transferred to a 50 mL tube and centrifuged at 1500 rpm for 3 minutes using a centrifuge.
(§4) After the centrifugation, the supernatant was discarded, and precipitated cells were resuspended by the addition of 1 mL of a medium for HUVEC. A 10 μL aliquot from the resuspension was mixed with 10 μL of Trypan Blue, and 10 μL thereof was added to a counting chamber. Then, the number of live cells was counted in Auto Cell Counter EVE. The cell suspension was diluted into 2.5×10^5 cells/mL with a medium for HUVEC and inoculated at 400 μL/well to the Matrigel prepared in (1). After the inoculation, each reaction solution prepared in (2) was added at 100 μL/well, followed by culture for 8 hours in a CO2 incubator.
(§5) Each well was washed three times with 1 mL of PBS, and Cell Recovery Solution (Corning Inc.) was added at 500 μL/well.
(§6) The cells and the Matrigel matrix were scraped off using Blue Chip (Watson), recovered into a 1.5 mL tube, and transferred to the 1.5 mL tube after rinsing of each well again with 500 μL of Cell Recovery Solution. The 1.5 mL tube was mixed by inversion five times and then left standing on ice for 1 hour to confirm that the Matrigel matrix was completely degraded. After the Matrigel matrix degradation, a supernatant was discarded by centrifugation at 800 rpm at 4° C. Precipitated cells were gently suspended in 1 mL of ice-cooled PBS and centrifuged at 800 rpm at 4° C. to discard a supernatant. Precipitated cells were gently suspended again in 1 mL of ice-cooled PBS and centrifuged at 800 rpm at 4° C.
(§7) 125 μL of CellAmp Washing Buffer attached to the kit was added to the cells precipitated by centrifugation, and mixed. […]
(§8) After the addition, real-time PCR was performed with QuantStudio™ 12K Flex real-time PCR system (Thermo Fisher Scientific Inc.) to quantify gene expression levels. […]

α-SMA = assay: as above; format: cell-based, human; settings: HUVEC; β-actin internal standard; 8 hours
Protocol: as §1, §2, §3, §4, §5, §6, §7, §8

[1] = tested on: HUVEC (human umbilical vein endothelial cells); assay: Neutralization test of vascular endothelial cell lumen formation inhibition (Example 14); format: cell-based; settings: Matrigel matrix; 8 hours culture
Protocol: Matrigel matrix (Corning Inc.) was placed in a refrigerator and thawed overnight. The thawed Matrigel matrix was added at 300 μL/well to a 12-well plate (Corning Inc.) and hardened by still standing at 37° C. for 1 hour in a CO2 incubator (ESPEC Corp.).
10 μL of Glycer-AGEs-BSA (10 mg/mL) prepared in Example 1 or 10 μL of control BSA (10 mg/mL), phosphate-buffered saline (PBS, FUJIFILM Wako Pure Chemical Corp.), and 90 μL of SJ-5 (10 mg/mL) or a control antibody (10 mg/mL) were added to a 1.5 mL tube (Watson) and left standing at room temperature for 10 minutes. Then, a supernatant was recovered by centrifugation at 14000 rpm for 15 minutes using a centrifuge (Thermo Fisher Scientific Inc.).
HUVEC (human umbilical vein endothelial cells, National Institutes of Biomedical Innovation, Health and Nutrition, JCRB cell bank) was cultured in a 10 cm dish (Corning Inc.) using 10 mL of a medium for HUVEC (KAC Co., Ltd.).
The cultured HUVEC was washed with 10 mL of PBS. Then, 1 mL of trypsin-EDTA (FUJIFILM Wako Pure Chemical Corp.) was added thereto and left standing at room temperature for 3 minutes. […]
After the centrifugation, the supernatant was discarded, and precipitated cells were resuspended by the addition of 1 mL of a medium for HUVEC. […] Then, the number of live cells was counted in Auto Cell Counter EVE (NanoEnTek Inc.). […]

PB-1 antibody = assay: Competitive ELISA of GAL691 and known AGEs against PB-1 (Example 31); format: binding, mouse; settings: immobilized A-peak-BSA; competitor 0.04 to 2.5 mM; PB-1 0.1 μg/mL
Protocol: Competitive ELISA was conducted using the reagents described in Example 13. A solution of A-peak-BSA prepared into 1 μg/mL in a coating solution was added at 100 μL/well to a 96-well microtiter plate (Costar) and incubated overnight at 4° C.
(§9) Each well after the immobilization treatment was washed three times with a washing solution (300 μL), and a blocking solution (200 μL) was added thereto and left at room temperature for 1 hour.
GAL691 (prepared in Example 16), GLAP (prepared in Example 12), Lys-hydroxy-triosidine (prepared in Example 17), GA-pyridine (prepared in Example 28), GOLD (prepared in Example 29), and Z-Lys were each dissolved in a phosphate buffer solution (0.2 M, pH 7.4) to prepare a 100 mM solution. Then, a 10 mM solution was prepared by dilution 10-fold with a diluting solution containing BSA (1 mg/mL, FUJIFILM Wako Pure Chemical Corp.). Sample solutions of 4-fold dilution series of 0.04, 0.16, 0.63, and 2.5 mM were further prepared with a diluting solution containing a 10% (v/v) phosphate buffer solution and 1 mg/mL BSA. Ten-fold dilutions of a phosphate buffer solution with a diluting solution containing 1 mg/mL BSA were prepared as blank solutions containing no sample in the same way as above. A 0.1 μg/mL solution of the PB-1 antibody was prepared with a diluting solution containing 1 mg/mL BSA.
Each well treated with the blocking solution was washed three times with a washing solution (300 μL), and the sample solutions of 4-fold dilution series (50 μL each) and the PB-1 antibody dilution solution (50 μL) were added thereto, stirred with a plate mixer for 2 minutes, and then incubated at room temperature for 1 hour.
After the competitive reaction, each well was washed three times with a washing solution (300 μL), and peroxidase-labeled anti-mouse IgG (H+L) polyclonal antibody, F(ab′)2 fragment (Kirkegaard & Perry Laboratories, Inc.) diluted into 0.05 μg/mL with a diluting solution containing 1 mg/mL BSA was added at 100 μL/well and left standing at room temperature for 1 hour.
After washing three times with a washing solution (300 μL), a substrate solution (ELISA POD substrate TMB kit (Popular), Nacalai Tesque, Inc.) was added at 100 μL/well and incubated at room temperature for 10 minutes under light shielding. Then, color development was terminated by the addition of 2 N sulfuric acid (50 μL).
Absorbance was measured at a dominant wavelength of 450 nm and a sub-wavelength of 650 nm with a microplate reader (Cytation 5, BioTek Instrument Inc.), and the absorbance at the sub-wavelength was subtracted from the absorbance at the dominant wavelength. Change in the absorbance of GAL691, GLAP, Lys-hydroxy-triosidine, GA-pyridine, GOLD, and Z-Lys was indicated as relative values to the absorbance of the blank solution.

[2] = tested on: POD-labeled novel monoclonal antibody (SJ-5); assay: Competitive ELISA of GAL13, GLAP, Z-Lys-OH against SJ-5 (Example 13); format: binding, mouse; settings: immobilized Glycer-AGEs-BSA; competitor 0.0063 to 2 mg/mL
Protocol: A solution of BSA containing AGEs derived from glyceraldehyde (stock solution: 10 mg/mL PBS solution) prepared into 1 μg/mL in a coating solution was added at 100 μL/well to a 96-well microtiter plate (COSTAR) and incubated overnight at 4° C.
as §9
GAL13 (prepared in Example 2), GLAP (prepared in Example 12), and Z-Lys-OH (Tokyo Chemical Industry Co., Ltd.) were each dissolved in a phosphate buffer solution (0.2 M, pH 7.4) to prepare a 20 mg/mL solution. Sample solutions of 2-fold dilution series from 0.0063 to 2 mg/mL (6 points) were further prepared by dilution with a diluting solution. A POD-labeled novel monoclonal antibody (SJ-5) solution was diluted 16,000-fold with a diluting solution containing BSA (1 mg/mL, FUJIFILM Wako Pure Chemical Corp.) to prepare a POD-labeled SJ-5 antibody dilution solution. […]
Absorbance was measured at a dominant wavelength of 450 nm and a sub-wavelength of 650 nm with a microplate reader (Cytation 5, BioTek Instrument Inc.), and the absorbance at the sub-wavelength was subtracted from the absorbance at the dominant wavelength.

“Glycer-AGEs-BSA: bovine serum albumin containing AGEs derived from glyceraldehyde [reference compound]” was tested, and the “effect on lumen formation of HUVEC” value (HUVEC) was “inhibited lumen formation”, the “expression level of CD31” value (CD31) was “decreased” and the “expression level of α-SMA” value (α-SMA) was “increased”. The “effect on lumen formation of HUVEC” value [1] was “inhibited lumen formation”.
`CC(=O)NC(CCCC[n+]1ccc(CO)c(O)c1)C(=O)O` (stereo not shown) [GA-pyridine] was tested, and the “change in absorbance relative to blank (competition for PB-1 binding)” value (“change in absorbance relative to blank” below) (PB-1 antibody) was “no reduction in absorbance was observed”.
With `CC(=O)NC(CCCCn1cc[n+](CCCCC(NC(C)=O)C(=O)O)c1)C(=O)O` (stereo not shown) [GOLD] the “change in absorbance relative to blank” value (PB-1 antibody) was “no reduction in absorbance was observed”.
`NCCCC[C@H](NC(=O)OCc1ccccc1)C(=O)O` [Z-Lys-OH, N^α-Carbobenzoxy-L-lysine] was tested, and the “change in absorbance relative to blank” value (PB-1 antibody) was “no reduction in absorbance was observed” and the “change in absorbance (competition for SJ-5 binding)” value [2] was “reduction in absorbance was observed for neither”.
With `CC(=O)N[C@@H](CCCC[n+]1cc(O)cc(CO)c1)C(=O)O` [GLAP] the “change in absorbance relative to blank” value (PB-1 antibody) was “no reduction in absorbance was observed” and the “change in absorbance (competition for SJ-5 binding)” value [2] was “reduction in absorbance was observed for neither”.

— patent publication US12391751B2, “Antibody against advanced glycation end products and use thereof” (Bloom Technology Corporation, priority 2018, dated 2025)
